13 compounds from ChEMBL document CHEMBL1144797, “Synthesis and antimicrobial activity of 7 alpha-amino-23,24-bisnor-5 alpha-cholan-22-ol derivatives” (Bioorg Med Chem Lett, 2008) can be followed below.

The structures appear in SMILES notation. In brackets after ≈: the same amount, converted by molar mass.

Data set [1] relates to Streptococcus pyogenes. The experiment in a line: Antimicrobial activity against Streptococcus pyogenes 308A. It counts as functional.
The subject of a further data set is Staphylococcus aureus. In words: Antimicrobial activity against Staphylococcus aureus 503. It is filed as functional.
In a further data set the test system is Salmonella typhimurium. In words: Antimicrobial activity against Salmonella Typhimurium. It is filed as functional, Salmonella enterica subsp. enterica serovar Typhimurium. The following applies: Salmonella enterica.
Data set [2] relates to Pseudomonas aeruginosa. In words: Antimicrobial activity against Pseudomonas aeruginosa 1771M. It is filed as functional.
A further data set deals with Escherichia coli. In words: Antimicrobial activity against Escherichia coli DC2. It counts as functional.
The subject of data set [3] is Pseudomonas aeruginosa. In words: Antimicrobial activity against Pseudomonas aeruginosa 9027. It is filed as functional.
A further data set has as its system Enterobacter cloacae. In words: Antimicrobial activity against Enterobacter cloacae 1321E. It counts as functional.
The subject of data set [4] is Streptococcus pyogenes. In words: Antimicrobial activity against Streptococcus pyogenes 77A. It is filed as functional.
Data set [5] is described as follows: Hemolytic activity against RBC at 100 ug/ml. The following applies: erythrocyte. It counts as ADME, cell-based.

By MIC is commonly meant the smallest concentration in the dilution series that meets the test's criterion for growth inhibition. For `C[C@H](COS(=O)(=O)O)[C@H]1CC[C@H]2[C@@H]3[C@H](N)C[C@H]4C[C@@H](NCCCNCCCCN)CC[C@]4(C)[C@H]3CC[C@]12C.Cl.Cl.Cl.Cl`, the MIC against Streptococcus pyogenes [1] was 25 µg/mL; in the data set on Staphylococcus aureus, 25 µg/mL; with Salmonella typhimurium, over 100 µg/mL; in the data set with Pseudomonas aeruginosa [2], over 100 µg/mL; against Escherichia coli, over 100 µg/mL; against Pseudomonas aeruginosa [3], over 100 µg/mL. Besides, the MIC against Enterobacter cloacae is over 100 µg/mL; in the data set with Streptococcus pyogenes [4], 50 µg/mL.
Turning to `C[C@H](CO)[C@H]1CC[C@H]2[C@@H]3[C@H](N)C[C@H]4C[C@H](N)CC[C@]4(C)[C@H]3CC[C@]12C.Cl.Cl`, the MIC in the data set on Streptococcus pyogenes [1] was found to be 1.6 µg/mL; with Staphylococcus aureus, 3.1 µg/mL; in the data set on Salmonella typhimurium, 25 µg/mL; against Pseudomonas aeruginosa [2], 25 µg/mL; against Escherichia coli it was 12.5 µg/mL; against Pseudomonas aeruginosa [3], 50 µg/mL. Besides, the results for the MIC against Enterobacter cloacae and against Streptococcus pyogenes [4] were 50 µg/mL and 3.1 µg/mL, respectively.
With `C[C@H](CO)[C@H]1CC[C@H]2[C@@H]3[C@H](N)C[C@H]4C[C@@H](NCCCNCCCCNCCCN)CC[C@]4(C)[C@H]3CC[C@]12C.Cl.Cl.Cl.Cl.Cl`, the MIC against Streptococcus pyogenes [1] is 3.1 µg/mL; against Staphylococcus aureus it was 6.3 µg/mL; with Salmonella typhimurium, over 100 µg/mL; against Pseudomonas aeruginosa [2] it was 50 µg/mL; in the data set on Escherichia coli it was 50 µg/mL; in the data set with Pseudomonas aeruginosa [3], 6.3 µg/mL. The results for the MIC in the data set with Enterobacter cloacae and in the data set with Streptococcus pyogenes [4] were over 100 µg/mL and 25 µg/mL, respectively.
For the compound `C[C@H](COS(=O)(=O)O)[C@H]1CC[C@H]2[C@@H]3[C@H](N)C[C@H]4C[C@H](NCCCNCCCCN)CC[C@]4(C)[C@H]3CC[C@]12C.Cl.Cl.Cl.Cl`, the minimum inhibitory concentration (MIC) was 6.3 µg/mL against Streptococcus pyogenes [1]; 6.3 µg/mL with Staphylococcus aureus; over 100 µg/mL in the data set with Salmonella typhimurium; 50 µg/mL against Pseudomonas aeruginosa [2]; 25 µg/mL against Escherichia coli; 12.5 µg/mL with Pseudomonas aeruginosa [3]. Further, the MIC with Enterobacter cloacae was over 100 µg/mL; against Streptococcus pyogenes [4], 12.5 µg/mL.
Take `C[C@H](CO)[C@H]1CC[C@H]2[C@@H]3[C@H](N)C[C@H]4C[C@@H](N)CC[C@]4(C)[C@H]3CC[C@]12C.Cl.Cl`: the MIC against Streptococcus pyogenes [1] was 6.3 µg/mL; in the data set on Staphylococcus aureus, 6.3 µg/mL; with Salmonella typhimurium it was 50 µg/mL; in the data set with Pseudomonas aeruginosa [2], 50 µg/mL; in the data set with Escherichia coli, 25 µg/mL; against Pseudomonas aeruginosa [3] it was over 100 µg/mL. Besides, the MIC against Enterobacter cloacae came to 50 µg/mL; in the data set on Streptococcus pyogenes [4] it was 6.3 µg/mL.
For the compound `C[C@H](CO)[C@H]1CC[C@H]2[C@@H]3[C@H](N)C[C@H]4C[C@H](NCCCNCCCCN)CC[C@]4(C)[C@H]3CC[C@]12C.Cl.Cl.Cl.Cl`, the MIC against Streptococcus pyogenes [1] is 12.5 µg/mL; against Staphylococcus aureus it was 12.5 µg/mL; against Salmonella typhimurium, over 100 µg/mL; in the data set with Pseudomonas aeruginosa [2], over 100 µg/mL; in the data set with Escherichia coli, over 100 µg/mL; in the data set with Pseudomonas aeruginosa [3] it was 25 µg/mL. For the same compound, the MIC with Enterobacter cloacae is over 100 µg/mL; against Streptococcus pyogenes [4] it was 25 µg/mL.
Regarding `C[C@H](CO)[C@H]1CC[C@H]2[C@@H]3[C@H](N)C[C@H]4C[C@H](NCCCNCCCCNCCCN)CC[C@]4(C)[C@H]3CC[C@]12C.Cl.Cl.Cl.Cl.Cl`, the MIC is 6.3 µg/mL against Streptococcus pyogenes [1]; 12.5 µg/mL against Staphylococcus aureus; over 100 µg/mL with Salmonella typhimurium; 25 µg/mL in the data set on Pseudomonas aeruginosa [2]; 50 µg/mL in the data set on Escherichia coli; 12.5 µg/mL against Pseudomonas aeruginosa [3]. The MIC in the data set with Enterobacter cloacae was over 100 µg/mL; with Streptococcus pyogenes [4] it was 25 µg/mL.
Regarding `C[C@H](CO)[C@H]1CC[C@H]2[C@@H]3[C@H](N)C[C@H]4C[C@@H](NCCCNCCCCN)CC[C@]4(C)[C@H]3CC[C@]12C.Cl.Cl.Cl.Cl`, the MIC in the data set with Streptococcus pyogenes [1] is 12.5 µg/mL; against Staphylococcus aureus, 12.5 µg/mL; in the data set with Salmonella typhimurium, over 100 µg/mL; in the data set on Pseudomonas aeruginosa [2] it was over 100 µg/mL; in the data set with Escherichia coli it was 50 µg/mL; with Pseudomonas aeruginosa [3], 25 µg/mL. Moreover, the MIC with Enterobacter cloacae is over 100 µg/mL; against Streptococcus pyogenes [4], 25 µg/mL.
Turning to `C[C@H](CO)[C@H]1CC[C@H]2[C@@H]3[C@H](O)C[C@H]4C[C@@H](NCCCNCCCCN)CC[C@]4(C)[C@H]3CC[C@]12C.Cl.Cl.Cl`, the MIC against Streptococcus pyogenes [1] was 25 µg/mL; in the data set with Staphylococcus aureus, 12.5 µg/mL; against Salmonella typhimurium it was 50 µg/mL; with Pseudomonas aeruginosa [2], 25 µg/mL; against Escherichia coli, 25 µg/mL; with Pseudomonas aeruginosa [3] it was 12.5 µg/mL. Besides, the MIC worked out at 50 µg/mL against Enterobacter cloacae and 25 µg/mL against Streptococcus pyogenes [4].
As for `CC(C)[C@H]1CC[C@H]2[C@@H]3[C@H](O)C[C@H]4CC(N)CC[C@]4(C)[C@H]3CC[C@]12C` (stereo not given in full), the MIC against Streptococcus pyogenes [1], in the data set with Staphylococcus aureus, in the data set on Salmonella typhimurium, in the data set on Pseudomonas aeruginosa [2], against Escherichia coli and against Pseudomonas aeruginosa [3] was 100 µg/mL (≈ 300 µM) each time. Also, the MIC against Enterobacter cloacae and in the data set on Streptococcus pyogenes [4] was 100 µg/mL (≈ 300 µM) throughout.
`C[C@H](CO)[C@H]1CC[C@H]2[C@@H]3[C@H](F)C[C@H]4C[C@@H](NCCCNCCCCN)CC[C@]4(C)[C@H]3CC[C@]12C.Cl.Cl.Cl`: the MIC in the data set on Streptococcus pyogenes [1] was 6.3 µg/mL; against Staphylococcus aureus, 6.3 µg/mL; against Salmonella typhimurium it was over 100 µg/mL; in the data set on Pseudomonas aeruginosa [2], 3.1 µg/mL; in the data set with Escherichia coli it was 6.3 µg/mL; against Pseudomonas aeruginosa [3] it was 6.3 µg/mL. Also, the MIC in the data set with Enterobacter cloacae is over 100 µg/mL; in the data set on Streptococcus pyogenes [4] it was 6.3 µg/mL.
On to `C[C@H](CO)[C@H]1CC[C@H]2[C@@H]3[C@H](N)C[C@H]4C[C@H](O)CC[C@]4(C)[C@H]3CC[C@]12C.Cl`, for which the MIC was 3.1 µg/mL in the data set on Streptococcus pyogenes [1]; 3.1 µg/mL against Staphylococcus aureus; over 100 µg/mL with Salmonella typhimurium; over 100 µg/mL with Pseudomonas aeruginosa [2]; 12.5 µg/mL in the data set on Escherichia coli; over 100 µg/mL with Pseudomonas aeruginosa [3]. Further, the MIC in the data set with Enterobacter cloacae is over 100 µg/mL; in the data set on Streptococcus pyogenes [4] it was 6.3 µg/mL. For the same compound, the outcome in [5] was Active.
As to `C[C@H](CO)[C@H]1CC[C@H]2[C@@H]3[C@H](N)C[C@H]4C[C@@H](O)CC[C@]4(C)[C@H]3CC[C@]12C.Cl`, the MIC with Streptococcus pyogenes [1] was 6.3 µg/mL; with Staphylococcus aureus it was 12.5 µg/mL; against Salmonella typhimurium it was over 100 µg/mL; in the data set on Pseudomonas aeruginosa [2] it was over 100 µg/mL; with Escherichia coli, 25 µg/mL; in the data set with Pseudomonas aeruginosa [3], over 100 µg/mL. The MIC in the data set on Enterobacter cloacae was over 100 µg/mL; against Streptococcus pyogenes [4] it was 12.5 µg/mL.
